For 17 compounds, TGI and GI50 results are on record in PubChem BioAssay (NCI).

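Where inhibition never reached the appropriate level, the endpoint shown equals the highest concentration tested. Otherwise, values were interpolated linearly from a five-concentration, 48-hour dose response in 96-well plates. GI50 = concentration required for 50% inhibition of growth. TGI denotes the concentration required for complete inhibition of growth.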 A value given as a limit tells only on which side of the number the result lay.

Test systems include IGROV1 ovarian; HOP-92 NSCLC; M14 melanoma; HT29 colon; RXF 393 renal; OVCAR-4 ovarian; UO-31 renal; DU-145 prostate; MDA-MB-435.
Holding throughout (assay): DTP human tumour cell line panel, 48 h

In general, TGI refers to the concentration giving total growth inhibition. Regarding `COc1ccc(OC)c(/C(C)=N/NC(N)=S)c1`, the TGI with IGROV1 ovarian, in the assay on HOP-92 NSCLC, in the assay on M14 melanoma, with HT29 colon, with RXF 393 renal and with OVCAR-4 ovarian was over 100 µM in each case. Also, the TGI with UO-31 renal was over 100 µM.
The GI50 is the concentration at which growth is held to half of that of the control. In the case of `C[N-]c1nnnn1C.[Au+].c1ccc([PH+](c2ccccc2)c2ccccc2)cc1`, the GI50 was 2.76 µM with IGROV1 ovarian; 2.67 µM in the assay on HOP-92 NSCLC; 2.34 µM with M14 melanoma; 2 µM in the assay on HT29 colon; 0.347 µM with RXF 393 renal; 3.19 µM in the assay on OVCAR-4 ovarian. In the assay with UO-31 renal, the GI50 is 12.7 µM. For the same compound, the TGI with IGROV1 ovarian amounted to 9.99 µM; in the assay with HOP-92 NSCLC, 5.42 µM; with M14 melanoma, 5.51 µM; in the assay with HT29 colon, 4.53 µM; in the assay on RXF 393 renal, 1.26 µM; in the assay with OVCAR-4 ovarian it was 12.9 µM. The total growth inhibition concentration (TGI) in the assay with UO-31 renal was determined as 25.3 µM.
As for `CN(C)CC(C)(C)/C(=N\Nc1ccccc1)c1ccccc1`, the concentration for total growth inhibition (TGI) in the assay with IGROV1 ovarian was over 100 µM; with M14 melanoma, 66.5 µM; in the assay with HT29 colon, over 100 µM; in the assay with RXF 393 renal, over 100 µM; with OVCAR-4 ovarian, over 100 µM; with UO-31 renal it was 29.3 µM.
In the case of `COc1cccc(-c2cc(=O)c3cc(OC)ccc3[nH]2)c1`, the 50% growth inhibitory concentration (GI50) in the assay with IGROV1 ovarian was 0.25 µM; in the assay with HOP-92 NSCLC, 7.15 µM; in the assay with M14 melanoma, 0.084 µM; in the assay with RXF 393 renal, 0.0144 µM; in the assay on DU-145 prostate, 0.186 µM; in the assay with UO-31 renal, 0.484 µM. Moreover, the TGI in the assay on IGROV1 ovarian was over 100 µM; in the assay on M14 melanoma it was 41.5 µM; in the assay on HT29 colon, 1.42 µM; in the assay with RXF 393 renal, 0.224 µM; with OVCAR-4 ovarian, over 100 µM; in the assay on UO-31 renal, over 100 µM.
`C#Cc1cccc(N2C(=O)CCC2=O)c1`: the TGI in the assay with MDA-MB-435 is 31.2 µM; with IGROV1 ovarian it was 37.9 µM; in the assay with M14 melanoma, 11.7 µM; with HT29 colon, 34.2 µM; with OVCAR-4 ovarian it was 20.5 µM; with DU-145 prostate, 28.3 µM. Also, the total growth inhibition concentration (TGI) in the assay on UO-31 renal was determined as 31.9 µM.
As to `O=c1nc(/C=C/c2ccccc2Cl)cc2n1CCN2CCO`, the TGI in the assay on IGROV1 ovarian, in the assay with HOP-92 NSCLC, with M14 melanoma, with HT29 colon, with RXF 393 renal and in the assay on OVCAR-4 ovarian was over 100 µM each time. The same compound yielded a total growth inhibition concentration (TGI) in the assay with UO-31 renal of over 100 µM.
On to `COc1ccc(Nc2nc3ccc(C(F)(F)F)cc3nc2-c2ccccc2)cc1OC`, for which the TGI in the assay with IGROV1 ovarian is over 100 µM; in the assay with HOP-92 NSCLC, 36.9 µM; in the assay on M14 melanoma, over 100 µM; in the assay with HT29 colon, 22.6 µM; in the assay on RXF 393 renal it was 83.6 µM; in the assay on OVCAR-4 ovarian it was over 100 µM. The compound also gave a total growth inhibition concentration (TGI) in the assay on UO-31 renal of 72.9 µM.
In the case of `Cc1cc2c(ccc3c(C)cc(=O)oc32)o1`, the TGI in the assay with IGROV1 ovarian, with HOP-92 NSCLC, in the assay with M14 melanoma, in the assay with HT29 colon, in the assay with RXF 393 renal and in the assay with OVCAR-4 ovarian was over 100 µM throughout. This compound displayed a TGI in the assay on UO-31 renal of over 100 µM.
On to `COc1ccc(S(=O)(=O)Nc2ccccc2C(=O)O)cc1`, for which the concentration for total growth inhibition (TGI) in the assay with IGROV1 ovarian, in the assay with HOP-92 NSCLC, with M14 melanoma, with HT29 colon, in the assay on RXF 393 renal and in the assay with OVCAR-4 ovarian was over 100 µM each time. The TGI in the assay on UO-31 renal was over 100 µM.
Take `COc1ccc2c(CN3CCCCC3CO)cc3cc(OC)c(OC)cc3c2c1` (configuration not stated): the concentration for total growth inhibition (TGI) in the assay with IGROV1 ovarian was determined as 61.1 µM; with HOP-92 NSCLC it was 9.82 µM; in the assay with M14 melanoma, 25 µM; in the assay with HT29 colon, 11.4 µM; with RXF 393 renal, 18 µM; in the assay on UO-31 renal it was 12.5 µM.
`C=C(COC(C)=O)CC(OC(C)=O)c1ccccc1` (configuration not stated): the concentration for total growth inhibition (TGI) in the assay with IGROV1 ovarian, in the assay with HOP-92 NSCLC, in the assay on M14 melanoma, with HT29 colon, in the assay on RXF 393 renal and with OVCAR-4 ovarian was over 100 µM each time. The same compound displayed a concentration for total growth inhibition (TGI) in the assay with UO-31 renal of over 100 µM.
Regarding `CC(C)CC(NC(=O)c1cccc(O)c1O)C(=O)NCc1cc(CNC(=O)C(CC(C)C)NC(=O)c2cccc(O)c2O)cc(CNC(=O)C(CC(C)C)NC(=O)c2cccc(O)c2O)c1` (configuration not stated), the TGI is 27.1 µM with IGROV1 ovarian; 32 µM in the assay with HOP-92 NSCLC; 30.9 µM with HT29 colon; 56.5 µM with OVCAR-4 ovarian; 70.1 µM in the assay on UO-31 renal.
In the case of `Cc1ccc(NC(=O)C2C(=O)N(c3ccc(C)cc3)C(=O)/C2=N\NC(N)=S)cc1` (configuration not stated), the TGI in the assay on IGROV1 ovarian, with HOP-92 NSCLC, in the assay with M14 melanoma, with HT29 colon, in the assay with RXF 393 renal and in the assay with OVCAR-4 ovarian was over 100 µM throughout. The compound also returned a TGI in the assay on UO-31 renal of over 100 µM.
For `CCCCCC(=O)C(C)C1=Nc2nnc(CCCCCCCc3nnc4n3C(=O)C(C(C)C(=O)CCCCC)=N4)n2C1=O` (configuration not stated), the total growth inhibition concentration (TGI) in the assay with IGROV1 ovarian, in the assay with M14 melanoma, in the assay with HT29 colon, with RXF 393 renal, in the assay with OVCAR-4 ovarian and with UO-31 renal was over 100 µM in each case.
Turning to `CC1CCC2(CC1)NN=c1s/c(=C\c3ccc(O)cc3)c(=O)n1N2` (configuration not stated), the TGI in the assay with IGROV1 ovarian, in the assay on M14 melanoma, in the assay with HT29 colon, in the assay on RXF 393 renal and in the assay with OVCAR-4 ovarian was over 100 µM in each case.
Turning to `COc1ccc(OC)c2c1CC(C(=O)O)(C(=O)O)CC2=O`, the total growth inhibition concentration (TGI) in the assay on IGROV1 ovarian, in the assay with HOP-92 NSCLC, in the assay with M14 melanoma, in the assay with RXF 393 renal, in the assay on OVCAR-4 ovarian and in the assay on UO-31 renal was over 100 µM throughout.
Consider `COc1ccc2c(c1)N1CCc3cc(OC)c(OC)cc3C1C2` (configuration not stated), for which the total growth inhibition concentration (TGI) in the assay on IGROV1 ovarian, in the assay with HOP-92 NSCLC, with HT29 colon, in the assay with RXF 393 renal, in the assay on OVCAR-4 ovarian and with UO-31 renal was over 100 µM throughout.
